Assay results from patent US4239887A, “Pyridothienotriazines” (USV Pharmaceutical Corporation, priority 1979, dated 1980).

What was measured:
[1] = system: formation of a wheal (Rat Passive Cutaneous Anaphylaxis); test: Rat Passive Cutaneous Anaphylaxis (PCA) Screen, inhibition of wheal formation; assay type: in vivo; details: for ED50: oral (p.o.), rat PCA, read-out: ED50 (dose required to give 50% reduction in wheal size)
Text: The compounds of this invention have potent activity in inhibiting the formation of a wheal when screened according to the Rat Passive Cutaneous Anaphylaxis Screen as is described by I. Mota, Life Sciences, 7, 465 (1963) and Z. Ovary, et al., Proceedings of Society of Experimental Biology and Medicine, 81, 584 (1952).
The activities are given as ED50 values, which are the doses required to give 50% reductions in wheal size.

[2] = oral anti-allergy activity in standard tests; assay type: in vivo; details: standard tests for anti-allergy activity

SMILES: Oc1nnnc2c1sc1ncccc12 [4-Hydroxy-pyrido[3',2':4,5]thieno[3,2-d]-1,2,3-triazine, reference compound]
- inhibition of wheal size ([1]; tested at 25 mg/kg, p.o.): 31%
- anti-allergy activity (in words) [2]: essentially inactive

SMILES: Cc1cc(C)c2c(n1)sc1c(O)nnnc12 [7,9-diCH3, OH, 4-Hydroxy-7,9-dimethylpyrido[3',2':4,5]thieno[3,2-d]-1,2,3-triazine]
- ED50 [1]: 5.6 mg/kg

SMILES: Cc1ccc2c(n1)sc1cnnnc12 [7-CH3, H, 7-Methylpyrido[3',2':4,5]thieno[3,2-d]-1,2,3-triazine]
- ED50 [1]: 1 mg/kg

SMILES: Cc1ccc2c(n1)sc1c(O)nnnc12 [7-CH3, OH, 4-Hydroxy-7-methylpyrido[3',2':4,5]thieno[3,2-d]-1,2,3-triazine]
- ED50 [1]: 6 mg/kg

SMILES: Oc1nnnc2c1sc1nc(-c3ccccc3)ccc12 [7-phenyl, OH, 4-Hydroxy-7-phenylpyrido[3',2':4,5]thieno[3,2-d]-1,2,3-triazine]
- ED50 [1]: 0.74 mg/kg
